Test results: US20230049619A1, “SIGMA-1 RECEPTOR LIGANDS AND USES THEREOF” (UNIVERSITE DE STRASBOURG, priority 2019, published 2023)

Columns and labels:
sigma-1 receptor = biological target: T1, sigma-1 receptor (Homo sapiens, UniProt Q99720); assay: sigma-1 receptor binding assay ([3H](+)-pentazocine displacement, Jurkat cell membranes); details: [3H](+)-pentazocine 15 nM, 37° C., 2 hours
T1 construct: incubing Jurkat cell membranes ([…] protein per tube) with [^3H](+)-pentazocine; endogenous in cells; host or cells: Jurkat cell membranes
Experimental: The sigma-1 receptor binding assays were performed according to Ganapathy et al. (J Pharmacol Exp Ther 28:251-60, 1999). The sigma-1 receptor binding assay was carried out by incubing Jurkat cell membranes ([…] protein per tube) with [^3H](+)-pentazocine a selective sigma-1 radiotracer (15 nM) and a range of concentration of tested compounds, at 37° C. for 2 hours in 5 mM tris/HCl buffer (pH=7.4). The inhibition of [^3H](+)-pentazocine binding assay is mainly used to determine the inhibition constant (Ki) of potential sigma-1 receptor ligands. These assays are performed with a single concentration of [^3H](+)-pentazocine at a concentration near its KD and increasing concentrations of non-radioactive ligands.

T1 sequence (Q99720 whole entry): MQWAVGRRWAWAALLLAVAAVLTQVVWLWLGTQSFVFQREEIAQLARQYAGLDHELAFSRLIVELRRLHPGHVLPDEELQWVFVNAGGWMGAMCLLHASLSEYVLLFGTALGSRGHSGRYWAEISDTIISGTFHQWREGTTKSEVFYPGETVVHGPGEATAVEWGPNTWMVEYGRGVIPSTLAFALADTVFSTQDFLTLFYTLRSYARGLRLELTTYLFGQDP

inhibition at 0.01 µM (sigma-1 receptor; tested compound 10 nM): 86% | inhibition at 0.1 µM (sigma-1 receptor; tested compound 100 nM): 90% | melting point: 144 °C
SMILES: Cl.O=c1c(-c2ccccc2)cncn1C1CCN(Cc2ccccc2)CC1 [cpd 43, 3-(1-benzylpiperidin-4-yl)-5-phenylpyrimidin-4(3H)-one hydrochloride]
